Results reported in patent US20260327260A1, “PHOSPHONOALANINE OLIGOPEPTIDES AND METHODS OF MAKING AND USE THEREOF” (priority 2023, published 2026).

Legend:
threonine synthase = details: role: inhibitor; cited from earlier work
PnaA [1] = test: PnaA kinetics: conversion of L-Glu and OAA to 2-KG and L-Asp, coupled to SerA/NADH oxidation; type: biochemical, Streptomyces sp. NRRL S-515; details: role: substrate (L-Glu, 0.5-15 mM); second substrate OAA 5 mM; pH 7.5, 30° C
Method: In addition to the transamination of Pn substrates, PnaA was also capable of catalyzing the reversible conversion of Glu and OAA into 2KG and Asp.
(§1) Kinetic analyses. All reactions (400 μL) were performed in 50 mM HEPES, 150 mM NaCl, pH 7.5, 30° C. using an Agilent Cary 300 spectrophotometer. The instrument was first blanked using the reaction containing the enzymes and the fixed substrate (without NADH). Initial rates were calculated from continual changes in absorbance (340 nm) before and after substrate addition. Data were analyzed using SigmaPlot 15.
Conversion of L-Glu and OAA to 2-KG and L-Asp by His6-SUMO-PnaA. Each reaction contained 1 μM PnaA, 5 μM SerA, 200 uM NADH, 5 mM OAA, the 340 nm absorbance change was recorded for 1 min to measure the background assumption of OAA by SerA, and were initiated by the addition of 0.5, 1, 1.5, 2, 3, 4, 6, 10, or 15 mM L-Glu. PnaA was pre-incubated with PLP (1:5) on ice for 10 min prior to use.

PnaA [2] = test: PnaA kinetics: conversion of L-PnAla and OAA to PnPy and L-Asp, coupled to PnPy reductase VlpB/NADH oxidation; type: biochemical, Streptomyces sp. NRRL S-515; details: second substrate OAA 5 mM
Method: (§2) Next, kinetic analyses were performed to derive insight on the substrate specificity and reaction selectivity of PnaA transamination. Apparent steady state parameters were calculated in spectrophotometric assays by coupling the formation of OAA, PnPy, and 2KG with NADH oxidation in the presence of malate dehydrogenase (MDH), PnPy reductase (VlpB), and 3-phosphoglycerate dehydrogenase (SerA), respectively (FIG. 18A-FIG. 24B). […] The micromolar Km value observed for PnaA with PnPy is similar to that of other PepM coupling enzymes such as PnPy decarboxylase [B27, B30].
as §1
Conversion of L-PnAla and OAA to PnPy and L-Asp by His6-SUMO-PnaA. Each reaction contained 1 μM PnaA, 5 μM VlpB, 200 uM NADH, 5 mM OAA, the 340 nm absorbance change was recorded for 1 min to measure the background assumption of OAA by VlpB. Then the reactions were initiated by the addition of 0.1, 0.2, 0.35, 0.5, 0.65, 0.8, or 1 mM PnAla. PnaA was pre-incubated with PLP (1:5) on ice for 10 min prior to use.

PnaC = PnaC dipeptide ligation reactions (LC-HRMS); type: biochemical, Streptomyces sp. NRRL S-515; details: role: substrate
Method: (§3) These hypotheses were tested by overproducing and purifying recombinant PnaB and PnaC from E. coli for use in a series of biochemical assays. PnAla, Ala, and ATP were incubated with PnaB or PnaC and the reactions were monitored by ^31P NMR and LC-HRMS. […] To determine if either enzyme could convert Ala-Val into phosphonoalamide A, protein was removed from the PnaC reaction by ultrafiltration and Ala, ATP, and fresh PnaC or PnaB was added to the filtrate. LC-HRMS identified PnAla-Ala-Val as a product following the addition of PnaB, but not PnaC (FIG. 25A-FIG. 25C).
The ATP-Grasp ligases PnaC and PnaB underlie diversification of L-PnAla-containing oligopeptides. To understand the biochemical nature of this potential phosphonopeptide diversity, the substrate specificity of the dipeptide ligase PnaC was first delineated. Microscale biochemical reactions containing purified PnaC were performed with every combination of the 20 canonical amino acids and L-allo-threonine (231 total pairs of substrates). Reactions were analyzed by LC-HRMS to reveal putative dipeptides from 146 out of the 231 combinations. To distinguish residues in reactions containing isomeric pairs (e.g., Ile and Leu, Thr and allo-Thr) new reactions were prepared using ^15N-Ile and 4-^13C-2,3-D2-Thr as substrates. LC-HRMS/MS fragmentation analysis was then performed to verify all products and determine structures.
Biochemical assays of His6-PnaC. Typical reaction mixtures ([…]) contained 10 μM His6-PnaC, […], 3 mM of each L-amino acid, and 5 mM ATP in 50 mM Tris-HCl, 100 mM NaCl, 2 mM MgCl2 pH 9. Reactions were incubated at 30° C. for 16 hours, heat inactivated at 65° C. for 10 minutes, and then analyzed by LC-MS as described above.
Analysis of PnaC and PnaB substrate specificity reactions. An extracted ion chromatogram (EIC) was obtained for each potential product m z. The shape and retention time of each EIC were used to evaluate the quality and plausibility of true signals, and samples with low-confidence EICs were re-analyzed individually, to address the challenges of ion suppression (FIG. 31A-FIG. 31C) and background noise (FIG. 32A-FIG. 32D).

PnaA with PnaD = test: PnaD-PnaA coupled forward reaction, 31P NMR (PEP to PnAla); type: biochemical, Streptomyces sp. NRRL S-515; details: role: product, PEP 1.5 mM, 2 hours
Method: Biochemical assays of His6-SUMO-PnaA with His6-PnaD. Typical reaction mixtures (300 μL) contained 20 μM His6-PnaD, 20 μM His6-SUMO-PnaA, 1.5 mM PEP, 3 mM L-Asp, 100 μM pyridoxal 5′-phosphate (PLP), and 2 mM MgCl2 in 50 mM HEPES, 150 mM NaCl, pH 7.5. Reactions were incubated at 30° C. for 2 hours, heat inactivated at 65° C. for 10 minutes, and then analyzed by ^31P NMR and LC-MS as described above.
Reactions in timecourse experiments ([…]) contained 10 μM His6-PnaD, 10 μM His6-SUMO-PnaA, 1.5 mM PEP, 10 mM L-Asp, 100 μM pyridoxal 5′-phosphate (PLP), and 2 mM MgCl2 in 50 mM HEPES, 150 mM NaCl, pH 7.5. Samples were where heat inactivated 1, 5, 10, 30, 60, 120, and 240 min after initiation and then analyzed by ^31P NMR as described above.
Reactions examining the effect of amino donor concentrations were the same as above, except they contained 1.5, 3, 5, or 10 mM of (L-Asp). Samples were heat inactivated after 120 min and then analyzed by ^31P NMR as described above.

PnaB = PnaB ligation reactions (31P NMR, LC-HRMS); type: biochemical, Streptomyces sp. NRRL S-515; details: role: substrate
Method: as §3
Biochemical assays of His6-PnaB. Typical reaction mixtures ([…]) contained 10 μM His6-PnaB, 3 mM ATP, 1 mM L-PnAla, 3 mM chemically synthesized L-Ala-L-Val, L-Val-L-Val, L-Ala-L-Ile, or L-Thr-L-Val in 50 mM Tris-HCl, 100 mM NaCl, 2 mM MgCl2 pH 9. Reactions were incubated at 30° C. for 2 hours, heat inactivated at 65° C. for 10 minutes, and then analyzed by NMR and LC-MS as described above.

[3] = test system: metabotropic glutamate receptors; details: cerebral tissues; cited from earlier work
[4] = test system: phosphoserine phosphatases; details: role: inhibitor; cited from earlier work
PnaA [5] = test: PnaA reverse transamination reaction, 31P NMR/LC-MS (PnAla to PnPy); type: biochemical, Streptomyces sp. NRRL S-515; details: role: product, 2 hours
Method: Biochemical assays of His6-SUMO-PnaA. Typical reaction mixtures (300 μL) contained 20 μM His6-SUMO-PnaA, 1.5 mM L-PnAla, 3 mM oxaloacetate, and 100 μM pyridoxal 5′-phosphate (PLP) in 50 mM HEPES, 150 mM NaCl, pH 7.5. Reactions were incubated at 30° C. for 2 hours, heat inactivated at 65° C. for 10 minutes, and then analyzed by NMR and LC-MS as described above.
Reactions in time course experiments (150 μL) contained 10 μM His6-SUMO-PnaA, 1.5 mM L-PnAla, 10 mM oxaloacetate (OAA), and 100 μM pyridoxal 5′-phosphate (PLP) in 50 mM HEPES, 150 mM NaCl, pH7.5. Samples were where heat inactivated 1, 5, 10, 30, 60, 120, and 240 min after initiation and then analyzed by ^31P NMR as described above.
Reactions examining the effect of keto-acid acceptor concentrations were the same as above, except they contained 1.5, 3, 5, or 10 mM of (OAA). Samples were heat inactivated after 120 min and then analyzed by ^31P NMR as described above.

PnaA [6] = test: PnaA kinetics: conversion of PnPy and L-Asp to L-PnAla and OAA, coupled to MDH/NADH oxidation (340 nm); type: biochemical, Streptomyces sp. NRRL S-515; details: role: substrate (PnPy, 0.0025-0.015 mM); second substrate L-Asp 5 mM; pH 7.5, 30° C; apparent steady state
Method: as §2, §1
Conversion of PnPy and L-Asp to L-PnAla and OAA by His6-SUMO-PnaA. Each reaction contained 0.5 μM PnaA, 5 μM MDH, 200 uM NADH, 5 mM L-Asp, and were initiated by the addition of 0.0025, 0.00375, 0.005, 0.0065, 0.008, 0.01, or 0.015 mM PnPy. PnaA was pre-incubated with PLP (1:5) on ice for 10 min prior to use.

MurA = details: role: inhibitor; mimics phosphoenolpyruvate; cited from earlier work
[7] = test system: 1-deoxy-D-xylulose 5-phosphate reductoisomerase; details: role: inhibitor; cited from earlier work
malaria = details: cited from earlier work
bacteria = details: cited from earlier work
[8] = role: substrate (PnAla), compared with PnPy
[9] = role: substrate (PnAla, 0.1-1 mM), pH 7.5, 30° C, reverse reaction

## N[C@@H](/C=C\CP(=O)(O)O)C(=O)O [(Z)-L-2-amino-5-phosphono-3-pentenoic acid]
Threonine synthase
  threonine synthase inhibition: threonine synthase inhibitor

## N[C@@H](CCC(=O)O)C(=O)O [Glu]
PnaA [1]
  Km: 7.5 mM
  kcat: 0.31 s⁻¹

## NC(CP(=O)(O)O)C(=O)O (stereo not drawn) [PnAla, 2-amino-3-phosphonopropionic acid]
PnaA [2]; [8]
  higher Michaelis constant (fold, reverse reaction compared with PnPy reaction): 100 fold
  lower catalytic efficiency (fold, reverse reaction compared with PnPy reaction): 100 fold
PnaA [2]; [9]
  Km: 327 µM
  kcat: 2.4 s⁻¹
PnaC; with Ala and ATP, up to 16 hrs
  modification of PnAla with Ala: PnAla remained unmodified
PnaC; with chemically synthesized Ala-Val and ATP
  conversion of PnAla with Ala-Val: PnAla remained unmodified by PnaC
PnaA with PnaD; Asp varied 1.5, 3, 5 or 10 mM
  PnAla accumulation at apparent equilibrium: ≥ 70%
PnaA with PnaD; L-Asp 3 mM, PLP 100 μM, 30° C
  yield of PnAla from the PepM-coupled forward reaction: 50%
PnaB; L-PnAla 1 mM, with Ala-Val 3 mM and ATP 3 mM, pH 9, 30° C
  conversion of PnAla into phosphonoalamide A: complete conversion of PnAla into phosphonoalamide A by PnaB
PnaB; with Ala and ATP, up to 16 hrs
  modification of PnAla with Ala: PnAla remained unmodified
[3]
  metabotropic glutamate receptor antagonism: selective antagonist of metabotropic glutamate receptors
[4]
  phosphoserine phosphatase inhibition: inhibitor of phosphoserine phosphatases

## O=C(O)C(=O)CP(=O)(O)O [PnPy, 3-phosphonopyruvate]
PnaA [5]; L-PnAla 1.5 mM, OAA 3 mM, PLP 100 μM, 30° C
  yield of PnPy from the reverse reaction: 48%
PnaA [5]; PnAla 1.5 mM, OAA varied 1.5, 3, 5 or 10 mM
  PnPy accumulation at apparent equilibrium: ≥ 70%
PnaA [6]
  Km: 4.8 µM
  kcat: 2.3 s⁻¹

## C[C@@H]1O[C@@H]1P(=O)(O)O [fosfomycin]
MurA
  MurA inhibition: covalently inhibit MurA

## O=CN(O)CCCP(=O)(O)O [fosmidomycin]
[7]
  inhibition of 1-deoxy-D-xylulose 5-phosphate reductoisomerase: inhibiting 1-deoxy-D-xylulose 5-phosphate reductoisomerase
malaria
  results against malaria in human trials: promising results against malaria in human trials

## CC(C)[C@H](NC(=O)[C@H](C)NC(=O)[C@@H](N)CP(=O)(O)O)C(=O)O [phosphonoalamide A]
bacteria
  spectrum of antimicrobial activity: differing spectrums of antimicrobial activity

## C[C@H](N)C(=O)N[C@@H](C)C(=O)N[C@@H](CP(=O)(O)O)C(=O)O [phosphonoalamide F, reference compound]
bacteria
  spectrum of antimicrobial activity: differing spectrums of antimicrobial activity
